Results from patent EP0262053A2, “Amino-acid derivatives, their preparation and pharmaceutical compositions containing them” (CENTRE NATIONAL DE LA RECHERCHE SCIENTIFIQUE (CNRS), priority 1986, dated 1988).

What was measured:
[1] = target: T1, enképhalinase purifiée du rein de lapin (Oryctolagus cuniculus, UniProt P08049); experiment: Inhibitory power on enkephalinase (endopeptidase), substrate [3H]D-Ala2-Leu5 enkephalin; type: biochemical; details: purified rabbit kidney enzyme, 20 min at 25°C, Tris-HCl pH 7.4; read-out: Enképhalinase(M), concentrations inhibitrices 50 % (converted)
T1 construct: l'enképhalinase purifiée du rein de lapin; from tissue; host or cells: rabbit kidney
T1 sequence (P08049 1-750): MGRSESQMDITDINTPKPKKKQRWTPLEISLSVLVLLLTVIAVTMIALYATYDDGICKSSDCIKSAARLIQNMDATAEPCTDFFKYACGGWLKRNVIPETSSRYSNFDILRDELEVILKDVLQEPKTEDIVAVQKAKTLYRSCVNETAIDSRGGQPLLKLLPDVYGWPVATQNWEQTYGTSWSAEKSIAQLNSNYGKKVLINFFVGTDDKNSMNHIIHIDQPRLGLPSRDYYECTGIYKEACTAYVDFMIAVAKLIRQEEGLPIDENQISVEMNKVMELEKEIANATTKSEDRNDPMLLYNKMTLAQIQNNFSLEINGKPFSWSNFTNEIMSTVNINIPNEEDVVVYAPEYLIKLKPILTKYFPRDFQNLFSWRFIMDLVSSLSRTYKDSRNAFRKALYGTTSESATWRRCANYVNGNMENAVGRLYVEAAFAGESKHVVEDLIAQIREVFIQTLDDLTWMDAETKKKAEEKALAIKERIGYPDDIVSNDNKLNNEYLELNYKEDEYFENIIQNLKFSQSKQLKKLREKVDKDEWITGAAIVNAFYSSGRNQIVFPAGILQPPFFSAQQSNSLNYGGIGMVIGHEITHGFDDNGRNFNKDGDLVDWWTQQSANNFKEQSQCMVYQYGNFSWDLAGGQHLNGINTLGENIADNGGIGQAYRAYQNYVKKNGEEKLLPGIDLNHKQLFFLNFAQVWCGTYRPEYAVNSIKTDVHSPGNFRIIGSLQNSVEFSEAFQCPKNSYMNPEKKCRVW
Description: Le pouvoir inhibiteur est déterminé sur de l'enképhalinase purifiée du rein de lapin en suivant le protocole décrit dans la littérature (Llorens, C., B. Malfroy, J.C. Schwartz, G. Gacel, B.P. Roques et al., 1982, J. Neurochem. 39, 1081).
Après une pré-incubation de 15 minutes à 25°C, une aliquote de protéines est incubée pendant 20 minutes à 25°C en présence de 20 nanomoles de [³H]D-Ala²-Leu⁵ enképhaline et du produit à tester dans le tampon Tris-HCl (pH 7.4) 50 mM. On arrête la réaction par addition d'HCl 0.2 N. Le métabolite tritié [³H]Tyr-D-Ala-Gly est séparé de la D-Ala²-Leu⁵-enképhaline par chromatographie sur colonne de porapak.
(§1) L'activité des différents produits est exprimée en concentrations inhibitrices 50 %.

[2] = target: T2, aminopeptidase purifiée du rein de lapin (Oryctolagus cuniculus, UniProt P15541); experiment: Inhibitory power on aminopeptidase, substrate [3H]Leu5-enkephalin; type: biochemical; details: purified rabbit kidney enzyme, [3H]Leu5-enkephalin substrate; read-out: Aminopeptidase(M), concentrations inhibitrices 50 % (converted)
T2 construct: purifiée du rein de lapin; from tissue; host or cells: rabbit kidney
T2 sequence (P15541 1-966): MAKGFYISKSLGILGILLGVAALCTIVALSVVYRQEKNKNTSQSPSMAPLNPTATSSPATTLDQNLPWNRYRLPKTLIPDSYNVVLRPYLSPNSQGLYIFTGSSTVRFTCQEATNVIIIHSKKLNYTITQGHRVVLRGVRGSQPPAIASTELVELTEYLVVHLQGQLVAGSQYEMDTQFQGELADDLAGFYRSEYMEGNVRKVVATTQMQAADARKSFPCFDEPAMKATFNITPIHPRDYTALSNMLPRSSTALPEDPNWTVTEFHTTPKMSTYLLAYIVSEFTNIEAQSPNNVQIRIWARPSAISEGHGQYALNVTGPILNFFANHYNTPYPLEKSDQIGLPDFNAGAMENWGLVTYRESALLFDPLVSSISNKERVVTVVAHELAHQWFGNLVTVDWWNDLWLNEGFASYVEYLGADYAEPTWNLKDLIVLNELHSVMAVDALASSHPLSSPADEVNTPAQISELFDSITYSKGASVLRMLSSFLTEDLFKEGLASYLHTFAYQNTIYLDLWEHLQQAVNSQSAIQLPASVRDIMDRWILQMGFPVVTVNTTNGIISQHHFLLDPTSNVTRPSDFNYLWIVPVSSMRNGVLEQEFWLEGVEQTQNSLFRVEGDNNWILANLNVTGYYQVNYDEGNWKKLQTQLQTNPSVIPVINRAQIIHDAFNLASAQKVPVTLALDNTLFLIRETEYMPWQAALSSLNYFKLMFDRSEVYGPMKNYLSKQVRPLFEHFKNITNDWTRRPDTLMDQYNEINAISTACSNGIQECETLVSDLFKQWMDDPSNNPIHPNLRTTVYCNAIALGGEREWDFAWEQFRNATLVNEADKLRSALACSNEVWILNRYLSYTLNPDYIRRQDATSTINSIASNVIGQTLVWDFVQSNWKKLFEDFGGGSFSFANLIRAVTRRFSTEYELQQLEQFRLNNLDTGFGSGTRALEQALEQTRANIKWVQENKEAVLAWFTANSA
From the text: Le pouvoir inhibiteur est mesuré sur l'aminopeptidase purifiée du rein de lapin en suivant le protocole décrit dans la littérature (Romaine Bouboutou, Gilles Waksman, Joceyline Deim, Marie-Claude Fournié-Zaluski and Bernard P. Roques, Life Sciences, vol. 35, pp. 1023-1030, 1984).
Le dosage est conduit d'une manière identique au précédent, en utilisant la [³H]Leu⁵-enképhaline à la place de la [³H]D-Ala²-Leu⁵-enképhaline comme substrat.
as §1

[3] = target: T3, dipeptidylaminopeptidase purifiée à partir du cerveau de rat (Rattus norvegicus, UniProt O55096); experiment: Inhibitory power on dipeptidylaminopeptidase, substrate [3H]Leu5-enkephalin; type: biochemical; details: enzyme purified from rat brain, [3H]Leu5-enkephalin substrate; read-out: Dipeptidyla-minopeptida-se(M), concentrations inhibitrices 50 % (converted)
T3 construct: purifiée à partir du cerveau de rat; from tissue; host or cells: rat brain
T3 sequence (O55096 2-738 limits assumed): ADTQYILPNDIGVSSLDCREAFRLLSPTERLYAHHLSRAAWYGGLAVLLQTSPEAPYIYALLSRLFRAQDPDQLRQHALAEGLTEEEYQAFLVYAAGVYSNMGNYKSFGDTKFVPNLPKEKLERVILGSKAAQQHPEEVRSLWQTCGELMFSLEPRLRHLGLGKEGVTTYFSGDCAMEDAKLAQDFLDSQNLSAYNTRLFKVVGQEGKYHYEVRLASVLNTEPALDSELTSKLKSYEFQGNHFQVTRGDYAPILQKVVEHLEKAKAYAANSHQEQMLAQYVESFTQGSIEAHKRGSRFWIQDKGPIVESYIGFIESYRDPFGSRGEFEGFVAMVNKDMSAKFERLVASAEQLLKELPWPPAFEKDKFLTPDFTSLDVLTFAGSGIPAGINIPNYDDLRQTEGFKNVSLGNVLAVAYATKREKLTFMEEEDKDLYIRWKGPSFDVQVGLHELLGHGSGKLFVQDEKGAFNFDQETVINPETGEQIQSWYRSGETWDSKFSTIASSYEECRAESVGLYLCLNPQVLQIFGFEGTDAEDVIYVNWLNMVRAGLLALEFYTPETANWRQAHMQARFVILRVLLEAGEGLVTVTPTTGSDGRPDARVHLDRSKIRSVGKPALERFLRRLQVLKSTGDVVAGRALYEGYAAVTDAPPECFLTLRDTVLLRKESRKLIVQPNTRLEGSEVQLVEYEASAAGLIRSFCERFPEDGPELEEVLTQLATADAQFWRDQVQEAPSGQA
From the text: Le pouvoir inhibiteur est mesuré sur la dipeptidylaminopeptidase purifiée à partir du cerveau de rat en suivant le protocole décrit (Romaine Bouboutou, Gilles Waksman, Joceyline Deim, Marie-Claude Fournié-Zaluski and Bernard P. Roques, Life Sciences, vol. 35, pp. 1023-1030, 1984).. On utilise également la [³H]Leu⁵-enképhaline comme substrat.
as §1

souris = experiment: Hot plate test (licking and jump reflex, plate at 55°C); type: in vivo; details: mouse, intracerebroventricular, 50 )g, plate 55°C; for Saut: cut off 240 s
Description: Il concerne le réflexe de lèchement et de saut de la souris sur une plaque chauffée à 55°C selon la méthode de Jacob et coll. (Arch. Int. Pharmacodyn. 122, 287-300, 1959 : 133, 296-300, 1961).
Administrés par voie intracérébroventriculaire chez la souris, les inhibiteurs testés présentent un effet propre à la fois sur le temps de latence du saut et sur celui des lèchements. Ces effets sont reversés par la naloxone (antagoniste morphinique).
Le cut off correspond au moment où la souris est enlevée si elle n'a pas sauté ;

Molecule	IC50 [1] [M]	IC50 [2] [M]	IC50 [3] [M]	Lèchements (souris; cut off 30 s) [s]	Saut (souris) [s]	Lèchements (s) (souris; cut off 30 s)
CC(CNC(=O)C(CC(=O)NO)Cc1ccccc1)C(=O)O (stereo not drawn) [compound 3, N[N(hydroxy)aminocarbonyl-3 benzyl-2 oxo-1 propyl] methyl-2 β alanine]	2e-09	4e-07	2e-08	–	–	–
Acide [N[N(hydroxyamino) carbonyl-1 phényl-3] propyl]-2 carboxamido-2 cyclohéxanoïque [compound 11]	5e-10	7e-08	2e-09	30	240	–
Acide N[(hydroxy amino carbonyl)-3 benzyl-2 oxo-1 propyl] amino-2 cyclohéxane carboxylique [compound 7]	4e-09	5e-08	1.5e-09	–	240	26,2 s
O=C(O)CCNC(=O)C(CC(=O)NO)Cc1ccccc1 (racemic) [compound 1, N[N(hydroxy)amino-carbonyl-3 benzyl-2 Oxo-1 propyl] β-alanine]	2e-09	5e-07	3e-08	–	–	–
N[N-hydroxyamino) carbonyl-3 benzyl-2 oxo-1 propyl] phényl-2 β-alanine [compound 6]	1.5e-09	8e-08	1e-09	–	–	–
CC(CC(=O)O)NC(=O)C(CC(=O)NO)Cc1ccccc1 (stereo not drawn) [compound 2, N[N(hydroxy)aminocarbonyl-3 benzyl-2 oxo-1 propyl] methyl-3 β alanine]	5e-09	3e-07	5e-10	–	–	–

Now from value to molecule, other results behind:

IC50 [1] [M]	IC50 [2] [M]	IC50 [3] [M]	Molecule	Lèchements (souris; cut off 30 s) [s]	Saut (souris) [s]	Lèchements (s) (souris; cut off 30 s)
2e-09	2e-08	5e-10	O=C(O)C[C@H](Cc1ccccc1)NC(=O)[C@@H](CC(=O)NO)Cc1ccccc1 [compound 5, N[N(hydroxy)aminocarbonyl-3 benzyl-2 oxo-1 propyl] benzyl-3 β alanine]	–	–	–
1.4e-09	1e-05	8e-07	O=C(O)CCC(=O)N[C@@H](CC(=O)NO)Cc1ccccc1 [compound 8, N[carboxy-3 oxo-1 propyl) amino]-3 phenyl-4 (Nʹ[hydroxyamino]-1 oxo-1 butane]	–	–	–
5e-10	4e-06	8e-07	CC(CC(=O)NC(CC(=O)NOCc1ccccc1)Cc1ccccc1)C(=O)O (stereo not shown) [compound 10]	–	–	–
9e-10	1e-05	1.8e-07	CC(CC(=O)O)C(=O)N[C@@H](CC(=O)NO)Cc1ccccc1 (stereo partly shown) [compound 9]	–	–	–
